Common to all, as to format: cell-based
One assay deals with Saccharomyces cervisiae. Briefly: Minimum Inhibitory Concentration (MIC) by spiral plater / spiral gradient endpoint against Saccharomyces cervisiae. The note with it: quantity of BIT used alone that gives the desired effect; calcium gluconate-BIT series; Saccharomyces cervisiae. On the procedure:
(§1) Synergistic Index=Qa/QA+Qb/QB [Equation No. 1] • where Qa=the quantity of component A used in a binary mixture that gives the desired effect • QA=the quantity of component A which when used alone gives the desired effect • Qb=the quantity of component B used in a binary mixture that gives the desired effect • QB=the quantity of component B which when used alone gives the desired effect
(§2) Minimum Inhibitory Concentration (“MIC”) for each of the antimicrobial compositions was determined against a test microbe, which in this case was a spore suspension of the fungus Alternaria alternata, with the aid of an Autoplate 4000 spiral plater that is commercially available from Spiral Biotech, Inc., Norwood, Mass., and its accompanying spiral gradient endpoint software (hereinafter referred to as “the SGE software”). […]
(§3) Inoculated spiral gradient plates were incubated for 48 hours in an incubator at 28° C. […] This growth endpoint value (expressed in mm as measured from center point of the Petri plate) was used to calculate MIC for the mixture, expressed as parts per million.
Utilizing the procedure described above in Example 1, Minimum Inhibitory Concentration (“MIC”) for each of the antimicrobial compositions was determined against a test microbe, which in this case was a spore suspension of the yeast Saccharomyces cervisiae. […]

Another assay relates to Escherichia coli. The assay can be described thus: Minimum Inhibitory Concentration (MIC) by spiral plater / spiral gradient endpoint against Escherichia coli. Here is the method: as §1
(§4) Minimum Inhibitory Concentration (“MIC”) for each of the antimicrobial compositions was determined against a test microbe, which in this case was a spore suspension of the fungus Alternaria alternata, with the aid of an Autoplate 4000 spiral plater that is commercially available from Spiral Biotech, Inc., Norwood, Mass., and its accompanying spiral gradient endpoint software (hereinafter referred to as “the SGE software”). The spiral plater automates the normal serial dilution method for determining MICs. Although the details of the SGE software are held confidentially by Spiral Biotech, Inc., they are believed to consistent with the principles set forth in “Measurement of MICs of antibacterial agents by spiral gradient endpoint compared with conventional dilution method” J. H. Paton, H. A. Holt, and M. J. Bywater—Int. J. Exp. Clin. Chemother, 1990.
The spiral plater automatically applied 54.3 micro-liters of each antimicrobial composition of interest to the surface of 150 millimeter malt agar plates using an exponential application gradient. The concentration of the antimicrobial concentration was greatest near the center of the Petri plates and decreased toward the edges. […]
as §3
Utilizing the experimental procedure described above in Example 1, the MIC against Escherichia coli of several antibacterial compositions containing zinc gluconate, BIT, or both in water were determined.

The next assay relates to Staphylococcus aureus. The assay can be described thus: Minimum Inhibitory Concentration (MIC) by spiral plater / spiral gradient endpoint against Staphylococcus aureus.
In another assay the test system is Candida albicans. Briefly: Minimum Inhibitory Concentration (MIC) by spiral plater / spiral gradient endpoint against Candida albicans. On the procedure:
as §1, §4
The spiral plater automatically applied 54.3 micro-liters of each antimicrobial composition of interest to the surface of 150 millimeter malt agar plates using an exponential application gradient. The concentration of the antimicrobial concentration was greatest near the center of the Petri plates and decreased toward the edges. Antimicrobial composition gradients were allowed to air dry at room temperature for 1 to 4 hours at 23° C. before inoculation with test microbe. Spiral gradient plates were inoculated by streaking with cotton swabs that had been soaked in test microbe spore suspension. Streaks were applied in a radial pattern, using a paper template generated by the SGE software to guide the application. Eight radii were inoculated per Petri plate. Each radius is considered as one replicated observation.
Inoculated spiral gradient plates were incubated for 48 hours in an incubator at 28° C. Visible growth of the test microbe developed along the radial streaks and ended where the concentration of the antimicrobial composition was sufficient to prevent growth. This growth endpoint value (expressed in mm as measured from center point of the Petri plate) was used to calculate MIC for the mixture, expressed as parts per million.
Utilizing the procedure described above in Example, Minimum Inhibitory Concentration (“MIC”) for each of the antimicrobial compositions was determined against a test microbe, which in this case was a spore suspension of the yeast Candida albicans., as described above in Example 1. Several antimicrobial compositions containing calcium gluconate, BIT, or both in water were investigated, as shown below in Table 3
Utilizing the procedure described above in Example 1, Minimum Inhibitory Concentration (“MIC”) for each of the antimicrobial compositions was determined against a test microbe, which in this case was a spore suspension of the yeast Candida albicans. Several antimicrobial compositions containing calcium glycerate, BIT, or both in water were investigated, as shown below in Table 11.
Utilizing the procedure described above in Example 1, Minimum Inhibitory Concentration (“MIC”) for antimicrobial compositions was determined against a test microbe, which in this case was a spore suspension of the yeast Candida albicans. Several antimicrobial compositions containing calcium glycerate, BIT, or both in water were investigated, as shown below in Table 23.
Utilizing the procedure described above in Example 1, Minimum Inhibitory Concentration (“MIC”) for each of the antimicrobial compositions was determined against a test microbe, which in this case was a spore suspension of the fungus Candida Albicans.

Another assay has as its system Klebsiella pneumoniae. The assay can be described thus: Minimum Inhibitory Concentration (MIC) by spiral plater / spiral gradient endpoint against Klebsiella pneumoniae. The note with it: quantity of BIT used alone that gives the desired effect, calcium ethylhexanoate-BIT series. Here is the method: as §1, §2, §3
Utilizing the procedure described above in Example 1, Minimum Inhibitory Concentration (“MIC”) for each of the antimicrobial compositions was determined against a test microbe, which in this case was a spore suspension of the bacteria Klebsiella pneumoniae. […]

One molecule from patent publication US20180332847A1, “ANTIMICROBIAL METAL CARBOXYLATE-BENZISOTHIAZOLINONE MIXTURES” (Troy Corporation, priority 2017, published 2018) can be followed below.

Each structure is given as a SMILES string. Where “and” joins values, the source holds several entries; their conditions need not be identical. Equal values may be shown once.

On to `O=c1[nH]sc2ccccc12` [BIT, 1,2-benzisothiazol-3(2H)-one], for which the QB was 61 ppm in the assay on Saccharomyces cervisiae; 136 ppm in the assay with Escherichia coli (MIC of BIT alone for Escherichia coli (average of Trials 1, 2), used for SI); 16 ppm in the assay with Staphylococcus aureus (MIC of BIT alone for Staphylococcus aureus, used for SI); 19 ppm with Candida albicans (MIC of BIT alone for Candida albicans (average of Trials 1, 2), used for SI (zinc ethylhexanoate series)); 13 ppm and 16 ppm in the assay with Candida albicans (MIC of BIT alone for Candida albicans, used for SI (zinc glycerate series)); 23 ppm in the assay on Candida albicans (quantity of BIT used alone that gives the desired effect, calcium gluconate-BIT series, Candida albicans). Moreover, the QB was found to be 85 ppm with Candida albicans (quantity of BIT used alone that gives the desired effect, calcium glycerate-BIT series, Candida albicans) and 27 ppm with Klebsiella pneumoniae. Moreover, the “ppm of BIT alone providing the same inhibition” value in the assay on Escherichia coli (zinc gluconate-BIT series, Escherichia coli) came to 136 ppm; in the assay with Staphylococcus aureus (zinc glycerate-BIT series, Staphylococcus aureus), 16 ppm; in the assay with Candida albicans (zinc ethylhexanoate-BIT series, Candida albicans), 19 ppm; in the assay with Candida albicans (zinc glycerate-BIT series, Candida albicans), 13 ppm.
